Measurements reported in patent US20240018153A1, “BENZENESULFONAMIDE DERIVATIVES AND USES THEREOF” (2692372 ONTARIO, INC., priority 2020, published 2024).

What was measured:
Assay type in all cases: cell-based
[1] = molecular target: T1, EGFR (Homo sapiens (Human), UniProt P00533); assay: A549 cell lysis and immunoassay, phospho-EGFR (Y1068) inhibition; set-up: key: X: EGFR bound and autophosphoration of EGFR inhibited in cells; details: A549 cells
Protocol: (§1) A549 cells (ATCC) were cultured in Dulbecco's Modified Eagle's Medium (DMEM) (Wisent) supplemented with 10% FBS and 1% penicillin/streptomycin. Cells were seeded in 6-well plates at 530,000 cells/well and incubated at 37° C., 5% CO2 for 16 hours. Cells were starved in DMEM containing 1% FBS for 4 hours before they were treated with the indicated concentrations of compound or DMSO alone and incubated at 37° C., 5% CO2 for 24 hours. Prior to cell harvest and lysis, 50 ng/ml human epidermal growth factor (hEGF) (Sigma) was added to the cells and incubated at 37° C., 5% CO2 for 10 minutes. Conditioned media was discarded, and adherent cells were washed with PBS before they were scraped on ice. Cell suspensions were centrifugated at 2,000 RPM for 5 minutes at 4° C. and supernatants were discarded. Cell pellets were resuspended with 1× RIPA buffer (Millipore) and incubated on ice for 15 minutes. Protein lysates were extracted by centrifugating at 20,000 RPM for 20 minutes at 4° C. Proteins were separated and total EGFR protein levels were quantified by Simple Western Immunoassay (ProteinSimple) using the Protein Normalization Assay Module for Jess according to the manufacturer's protocol, using a protein concentration of 0.125 μg/μl and an antibody targeting EGFR (clone #EP38Y, Abcam) diluted to 1:400. Phosphorylated EGFR protein levels were quantified with the same assay using a protein concentration of 1 μg/μl and an antibody targeting pEGFR (Y1068) (Cell Signalling) diluted to 1:25. EGFR and phosphorylated EGFR levels were normalized to the Jess Protein Normalization Reagent loading control and subsequently to the DMSO control.

[2] = molecular target: T1, EGFR; assay: A549 cell lysis and immunoassay, total EGFR degradation; set-up: key: Y: EGFR bound in cells and EGFR degradation occurred; details: A549 cells
Protocol: as §1

[3] = molecular target: BTK (Homo sapiens (Human), UniProt Q06187); assay: Ramos RA1 cell lysis and immunoassay, total BTK degradation; set-up: key to % BTK degradation (RAMOS, 24 h): Y: BTK bound in cells and BTK degradation occurred; concentration or dose not given beside the values; key to % BTK degradation (RAMOS, 10 uM, 24 h): Y: EGFR bound in cells and EGFR degradation occurred; details: RAMOS cells
Protocol: Ramos RA 1 cells (ATCC) were cultured in RPMI-1640 media (Wisent) supplemented with 10% heat-inactivated FBS and 1% penicillin/streptomycin. Cells were seeded in 6-well plates at 1.71×10^6 cells/well and incubated at 37° C., 5% CO2 for 16 hours. Cells were treated with compound at the indicated concentrations or DMSO alone and incubated at 37° C., 5% CO2 for 24 hours. Cell suspensions were centrifugated at 1,400-1,600 RPM for 5 minutes at room temperature and supernatants were discarded. Cell pellets were resuspended with 1× RIPA buffer (Millipore) and incubated on ice for 15 minutes. Protein lysates were extracted by centrifugating at 20,000 RPM for 20 minutes at 4° C. Proteins were separated and total BTK protein levels were quantified by Simple Western Immunoassay (ProteinSimple) using the 12-230 kDa Jess Separation Module according to the manufacturer's protocol, using a protein concentration of 0.25 μg/μl and antibodies targeting BTK (clone #D3H5, Cell Signalling) and β-Actin (clone #AC-15, Santa Cruz) diluted to 1:400 and 1:10, respectively, where the latter was used as a loading control. An equal ratio of rabbit and mouse HRP-conjugated secondary antibodies was used for detection. BTK protein levels were quantified relative to S-Actin loading levels and subsequently normalized to the DMSO control. Phosphorylated BTK levels were quantified using the Protein Normalization Assay Module for Jess (ProteinSimple) according to the manufacturer's protocol, using a protein concentration of 1.5 μg/μl and an antibody targeting pBTK (Y223) (Cell Signalling) diluted to 1:50. Phosphorylated BTK levels were quantified relative to the Protein Normalization Reagent and subsequently normalized to the DMSO control.

[4] = compound concentration 10, 24 h

T1 sequence (P00533 25-1210): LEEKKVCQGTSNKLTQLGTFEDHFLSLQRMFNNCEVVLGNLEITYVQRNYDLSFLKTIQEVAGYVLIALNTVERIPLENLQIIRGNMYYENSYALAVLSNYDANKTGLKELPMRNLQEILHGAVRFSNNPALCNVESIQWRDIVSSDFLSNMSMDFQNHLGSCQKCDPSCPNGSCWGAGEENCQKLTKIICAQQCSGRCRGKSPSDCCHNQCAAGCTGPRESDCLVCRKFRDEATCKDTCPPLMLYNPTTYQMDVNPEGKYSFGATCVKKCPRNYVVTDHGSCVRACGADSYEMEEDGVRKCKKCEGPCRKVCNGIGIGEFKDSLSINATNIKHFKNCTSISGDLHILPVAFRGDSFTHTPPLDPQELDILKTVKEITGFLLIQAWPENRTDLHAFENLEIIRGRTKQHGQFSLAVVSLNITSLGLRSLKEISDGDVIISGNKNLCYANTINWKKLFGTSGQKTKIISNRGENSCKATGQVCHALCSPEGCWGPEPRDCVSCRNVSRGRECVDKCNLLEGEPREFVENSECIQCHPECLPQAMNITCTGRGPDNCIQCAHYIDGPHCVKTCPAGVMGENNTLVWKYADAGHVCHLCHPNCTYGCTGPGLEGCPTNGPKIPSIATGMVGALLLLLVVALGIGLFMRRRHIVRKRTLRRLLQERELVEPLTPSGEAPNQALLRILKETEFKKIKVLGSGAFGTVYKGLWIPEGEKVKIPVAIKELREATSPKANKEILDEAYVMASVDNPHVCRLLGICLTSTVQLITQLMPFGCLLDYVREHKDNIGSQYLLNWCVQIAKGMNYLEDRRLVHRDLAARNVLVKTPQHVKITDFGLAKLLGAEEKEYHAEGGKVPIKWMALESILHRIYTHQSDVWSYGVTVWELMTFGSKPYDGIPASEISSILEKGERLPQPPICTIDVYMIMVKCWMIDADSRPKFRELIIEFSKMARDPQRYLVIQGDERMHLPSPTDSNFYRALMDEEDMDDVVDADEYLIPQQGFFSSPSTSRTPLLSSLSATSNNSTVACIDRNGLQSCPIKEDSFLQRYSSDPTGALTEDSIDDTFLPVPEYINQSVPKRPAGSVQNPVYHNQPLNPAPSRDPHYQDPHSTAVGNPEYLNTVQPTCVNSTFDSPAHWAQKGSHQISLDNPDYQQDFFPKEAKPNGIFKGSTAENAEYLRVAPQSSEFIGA
BTK, sequence (Q06187 whole entry): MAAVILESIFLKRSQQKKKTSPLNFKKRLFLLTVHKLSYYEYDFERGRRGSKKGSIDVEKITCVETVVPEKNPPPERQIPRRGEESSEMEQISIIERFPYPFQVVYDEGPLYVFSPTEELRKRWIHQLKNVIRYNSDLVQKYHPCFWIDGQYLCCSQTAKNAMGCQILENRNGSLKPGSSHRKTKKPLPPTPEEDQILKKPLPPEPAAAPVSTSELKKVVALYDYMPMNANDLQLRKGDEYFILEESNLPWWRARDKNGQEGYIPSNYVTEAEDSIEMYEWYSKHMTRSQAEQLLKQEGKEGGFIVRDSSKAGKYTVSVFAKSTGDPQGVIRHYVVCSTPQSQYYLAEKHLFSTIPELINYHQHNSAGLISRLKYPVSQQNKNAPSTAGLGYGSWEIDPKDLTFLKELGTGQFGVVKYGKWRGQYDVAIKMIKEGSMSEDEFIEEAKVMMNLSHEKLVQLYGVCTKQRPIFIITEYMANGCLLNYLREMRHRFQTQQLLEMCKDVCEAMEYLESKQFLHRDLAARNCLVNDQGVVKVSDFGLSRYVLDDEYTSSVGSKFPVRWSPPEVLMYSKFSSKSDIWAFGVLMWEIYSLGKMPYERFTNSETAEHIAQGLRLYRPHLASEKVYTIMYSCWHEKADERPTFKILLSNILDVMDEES

## CS(=O)(=O)c1c(F)c(F)c(F)c(F)c1C(=O)Nc1cc2c(Nc3ccc(F)c(Cl)c3)ncnc2cc1O[C@H]1CCOC1 [Compound I-5, (S)—N-(4-((3-chloro-4-fluorophenyl)amino)-7-((tetrahydrofuran-3-yl)oxy)quinazolin-6-yl)-2,3,4,5-tetrafluoro-6-(methylsulfonyl)benzamide]
[1]
  pEGFR inhibition (A549, 1 μM, 24 h): X
[1]; compound concentration 10 μM
  pEGFR inhibition (A549, compound concentration, 24 h): X
[2]
  EGFR degradation (A549, 1 μM, 24 h): Y
[2]; [4]
  EGFR degradation (A549, compound concentration, 24 h): Y
[3]
  % BTK degradation (RAMOS, 24 h): Y

## CN(C)S(=O)(=O)c1c(F)c(F)c(F)c(F)c1C(=O)NCCNc1ncnc2[nH]ccc12 [Compound I-47, N-(2-((7H-pyrrolo[2,3-d]pyrimidin-4-yl)amino)ethyl)-2-(N,N-dimethylsulfamoyl)-3,4,5,6-tetrafluorobenzamide]
[1]
  pEGFR inhibition (A549, 1 μM, 24 h): X
[2]
  EGFR degradation (A549, 1 μM, 24 h): Y
[2]; [4]
  EGFR degradation (A549, compound concentration, 24 h): Y
[3]
  % BTK degradation (RAMOS, 24 h): Y

## COCCOc1ccc(Nc2ncc(F)c(Nc3cccc(NC(=O)c4c(F)c(F)c(F)c(F)c4[S@+](C)[O-])c3)n2)cc1 (stereo in doubt) [Compound I-62, 2,3,4,5-tetrafluoro-N-(3-((5-fluoro-2-((4-(2-methoxyethoxy)phenyl)amino)pyrimidin-4-yl)amino)phenyl)-6-(methylsulfinyl)benzamide]
[1]
  pEGFR inhibition (A549, 1 μM, 24 h): X
[2]
  EGFR degradation (A549, 1 μM, 24 h): Y
[2]; [4]
  EGFR degradation (A549, compound concentration, 24 h): Y
[3]
  % BTK degradation (RAMOS, 24 h): Y

## COCCOc1ccc(Nc2ncc(F)c(Nc3cccc(Nc4c(F)c(F)c(F)c(F)c4[S@+](C)[O-])c3)n2)cc1 (stereo in doubt) [Compound I-63, 5-fluoro-N^2-(4-(2-methoxyethoxy)phenyl)-N^4-(3-((2,3,4,5-tetrafluoro-6-(methylsulfinyl)phenyl)amino)phenyl)pyrimidine-2,4-diamine]
[1]
  pEGFR inhibition (A549, 1 μM, 24 h): X
[1]; compound concentration 10 μM
  pEGFR inhibition (A549, compound concentration, 24 h): X
[2]
  EGFR degradation (A549, 1 μM, 24 h): Y
[2]; [4]
  EGFR degradation (A549, compound concentration, 24 h): Y
[3]
  % BTK degradation (RAMOS, 24 h): Y
[3]; 10 uM
  % BTK degradation (RAMOS, 10 uM, 24 h): Y

## CS(=O)(=O)c1c(F)c(F)c(F)c(F)c1CNCCNc1ncnc2[nH]ccc12 [Compound I-50, N^1-(7H-pyrrolo[2,3-d]pyrimidin-4-yl)-N2-(2,3,4,5-tetrafluoro-6-(methylsulfonyl)benzyl) ethane-1,2-diamine]
[1]
  pEGFR inhibition (A549, 1 μM, 24 h): X
[1]; compound concentration 10 μM
  pEGFR inhibition (A549, compound concentration, 24 h): X
[2]
  EGFR degradation (A549, 1 μM, 24 h): Y
[3]
  % BTK degradation (RAMOS, 24 h): Y

## COCCOc1ccc(Nc2ncc(F)c(Nc3cccc(Nc4c(F)c(F)c(F)c(F)c4S(C)(=O)=O)c3)n2)cc1 [Compound I-64, 5-fluoro-N^2-(4-(2-methoxyethoxy)phenyl)-N^4-(3-((2,3,4,5-tetrafluoro-6-(methylsulfonyl)phenyl)amino)phenyl)pyrimidine-2,4-diamine]
[1]
  pEGFR inhibition (A549, 1 μM, 24 h): X
[2]
  EGFR degradation (A549, 1 μM, 24 h): Y
[2]; [4]
  EGFR degradation (A549, compound concentration, 24 h): Y
[3]
  % BTK degradation (RAMOS, 24 h): Y

## COCCOc1ccc(Nc2ncc(F)c(Nc3cccc(NC(=O)c4c(F)c(F)c(F)c(F)c4S(=O)(=O)N(C)C)c3)n2)cc1 [Compound I-59, 2-(N,N-dimethylsulfamoyl)-3,4,5,6-tetrafluoro-N-(3-((5-fluoro-2-((4-(2-methoxyethoxy)phenyl)amino)pyrimidin-4-yl)amino)phenyl)benzamide]
[1]
  pEGFR inhibition (A549, 1 μM, 24 h): X
[1]; compound concentration 10 μM
  pEGFR inhibition (A549, compound concentration, 24 h): X
[2]
  EGFR degradation (A549, 1 μM, 24 h): Y
[2]; compound concentration 5, 24 h
  EGFR degradation (A549, compound concentration, 24 h): Y
[3]
  % BTK degradation (RAMOS, 24 h): Y

## C[S@+]([O-])c1c(F)c(F)c(F)c(F)c1C(=O)Nc1ncnc2[nH]ccc12 (racemic) [Compound I-46, 2,3,4,5-tetrafluoro-6-(methylsulfinyl)-N-(7H-pyrrolo[2,3-d]pyrimidin-4-yl)benzamide]
[1]
  pEGFR inhibition (A549, 1 μM, 24 h): X
[1]; compound concentration 10 μM
  pEGFR inhibition (A549, compound concentration, 24 h): X
[2]
  EGFR degradation (A549, 1 μM, 24 h): Y
[2]; [4]
  EGFR degradation (A549, compound concentration, 24 h): Y
[3]
  % BTK degradation (RAMOS, 24 h): Y

## NS(=O)(=O)c1c(F)c(F)c(F)c(F)c1C(=O)NCCNc1ncnc2[nH]ccc12 [Compound I-48]
[1]
  pEGFR inhibition (A549, 1 μM, 24 h): X
[1]; compound concentration 10 μM
  pEGFR inhibition (A549, compound concentration, 24 h): X
[2]
  EGFR degradation (A549, 1 μM, 24 h): Y
[2]; [4]
  EGFR degradation (A549, compound concentration, 24 h): Y
[3]
  % BTK degradation (RAMOS, 24 h): Y

## C[S+]([O-])c1c(F)c(F)c(F)c(F)c1C(=O)N1CCC[C@@H](n2nc(-c3ccc(Oc4ccccc4)cc3)c3c(N)ncnc32)C1 (stereo partly drawn) [Compound I-36, ((R)-3-(4-amino-3-(4-phenoxyphenyl)-1H-pyrazolo[3,4-d]pyrimidin-1-yl)piperidin-1-yl)(2,3,4,5-tetrafluoro-6-(methylsulfinyl)phenyl)methanone]
[1]
  pEGFR inhibition (A549, 1 μM, 24 h): X
[1]; compound concentration 10 μM
  pEGFR inhibition (A549, compound concentration, 24 h): X
[2]
  EGFR degradation (A549, 1 μM, 24 h): Y
[2]; [4]
  EGFR degradation (A549, compound concentration, 24 h): Y
[3]
  % BTK degradation (RAMOS, 24 h): Y

## CN(C)S(=O)(=O)c1c(F)c(F)c(F)c(F)c1C(=O)NCCCn1nc(-c2ccc(Oc3ccccc3)cc2)c2c(N)ncnc21 [Compound I-41, N-(3-(4-amino-3-(4-phenoxyphenyl)-1H-pyrazolo[3,4-d]pyrimidin-1-yl)propyl)-2-(N,N-dimethylsulfamoyl)-3,4,5,6-tetrafluorobenzamide]
[1]
  pEGFR inhibition (A549, 1 μM, 24 h): X
[2]
  EGFR degradation (A549, 1 μM, 24 h): Y
[2]; compound concentration 5, 24 h
  EGFR degradation (A549, compound concentration, 24 h): Y
[3]
  % BTK degradation (RAMOS, 24 h): Y

## Nc1ncnc2c1c(-c1ccc(Oc3ccccc3)cc1)nn2CCNC(=O)c1c(F)c(F)c(F)c(F)c1S(N)(=O)=O [Compound I-42, N-(2-(4-amino-3-(4-phenoxyphenyl)-1H-pyrazolo[3,4-d]pyrimidin-1-yl)ethyl)-2,3,4,5-tetrafluoro-6-sulfamoylbenzamide]
[1]
  pEGFR inhibition (A549, 1 μM, 24 h): X
[1]; compound concentration 10 μM
  pEGFR inhibition (A549, compound concentration, 24 h): X
[2]
  EGFR degradation (A549, 1 μM, 24 h): Y
[2]; [4]
  EGFR degradation (A549, compound concentration, 24 h): Y
[3]
  % BTK degradation (RAMOS, 24 h): Y

## CS(=O)(=O)c1c(F)c(F)c(F)c(F)c1C(=O)NCCCn1nc(-c2ccc(Oc3ccccc3)cc2)c2c(N)ncnc21 [Compound I-39, N-(3-(4-amino-3-(4-phenoxyphenyl)-1H-pyrazolo[3,4-d]pyrimidin-1-yl)propyl)-2,3,4,5-tetrafluoro-6-(methylsulfonyl)benzamide]
[1]
  pEGFR inhibition (A549, 1 μM, 24 h): X
[1]; compound concentration 5 μM
  pEGFR inhibition (A549, compound concentration, 24 h): X
[2]
  EGFR degradation (A549, 1 μM, 24 h): Y
[2]; compound concentration 5, 24 h
  EGFR degradation (A549, compound concentration, 24 h): Y
[3]
  % BTK degradation (RAMOS, 24 h): Y

## COCCOc1ccc(Nc2ncc(F)c(Nc3cccc(NC(=O)c4c(F)c(F)c(F)c(F)c4S(C)(=O)=O)c3)n2)cc1 [Compound I-61, 2,3,4,5-tetrafluoro-N-(3-((5-fluoro-2-((4-(2-methoxyethoxy)phenyl)amino)pyrimidin-4-yl)amino)phenyl)-6-(methylsulfonyl)benzamide]
[1]
  pEGFR inhibition (A549, 1 μM, 24 h): X
[2]
  EGFR degradation (A549, 1 μM, 24 h): Y
[2]; [4]
  EGFR degradation (A549, compound concentration, 24 h): Y
